This is an account of results in patent US9896441B2 (Lycera Corporation, priority 2014, dated 2018).

The target in one assay is T1, Gal4-RORγ-LBD (Homo sapiens, UniProt P51449).
T1 construct: expressed in transfected cells
T1 sequence (P51449 269-508 limits assumed): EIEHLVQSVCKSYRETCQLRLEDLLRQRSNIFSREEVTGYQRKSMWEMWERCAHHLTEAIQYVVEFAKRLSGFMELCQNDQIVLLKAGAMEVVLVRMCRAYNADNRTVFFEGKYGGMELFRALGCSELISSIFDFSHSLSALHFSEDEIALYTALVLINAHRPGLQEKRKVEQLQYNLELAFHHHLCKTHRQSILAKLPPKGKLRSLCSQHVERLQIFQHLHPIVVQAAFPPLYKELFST
Put plainly: Gal4-RORγ Luciferase Reporter Assay in HEK-293T Cells. Type of assay: cell-based. The note with it: HEK-293 cells. In short, it runs like this:
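HEK-293 cells were co-transfected with Gal4-RORγ-LBD and a Gal4-luciferase reporter, then exposed overnight at 37 °C to compounds with […] ursolic acid present (0.2% DMSO). Luminescence was read with One-Glo after 10 min at RT, untreated signal was set as 100, and Max Response was taken as the upper plateau of a 4-parameter logistic fit.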
For orientation: A reporter such as luciferase makes a cellular process visible.

Another assay deals with T2, RORγ-LBD (Homo sapiens, UniProt P51449).
T2 construct: made in house; host or cells: SF9 cells (baculovirus); used as diluted lysate
T2 sequence (P51449 269-508 limits assumed): T1 sequence (P51449 269-508 limits assumed)
The assay is described as follows: RORγ-Ligand Binding Domain (LBD) TR-FRET Assay. Type of assay: biochemical. The gist of the method: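 This TR-FRET coactivator assay pairs baculovirus-expressed His-RORγ-LBD (~3 nM final) with biotin-SRC1 LXXLL peptide at 200 nM final in pH 7.0 Tris/KCl/EDTA/DTT/BSA buffer.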

Setting [1] is: luciferase reporter, with ursolic acid.
The mark [2] stands for this setting: ursolic acid present, luciferase readout.
The mark [3] stands for this setting: with 2 μM ursolic acid (RORγ antagonist), highest test concentration 10 μM.

A word on the EC50: it is the concentration that produces a half-maximal response. Higher therefore signals lower potency in that assay.

Molecules are shown by their SMILES. Some results are limits rather than exact numbers.

As for `CCOc1ncc(C(F)(F)F)cc1S(=O)(=O)N1C[C@H](CCC(=O)OC)Oc2ccc(/C=C/c3c(Cl)cccc3OC)cc21` [Example 89FB, methyl (S,E)-3-(6-(2-chloro-6-methoxystyryl)-4-((2-ethoxy-5-(trifluoromethyl)pyridin-3-yl)sulfonyl)-3,4-dihydro-2H-benzo[b][1,4]oxazin-2-yl)propanoate], the EC50 was 500 to 5000 nM at Gal4-RORγ-LBD (setting [1]) and below 500 nM on RORγ-LBD (RORγ-LBD TR-FRET).
For `O=C(O)CC[C@H]1CN(S(=O)(=O)c2cc(C(F)(F)F)cnc2OCCCO)c2cc(/C=C/c3c(F)cccc3Cl)ccc2O1` [Example 89FC, (S,E)-3-(6-(2-chloro-6-fluorostyryl)-4-((2-(3-hydroxypropoxy)-5-(trifluoromethyl)pyridin-3-yl)sulfonyl)-3,4-dihydro-2H-benzo[b][1,4]-oxazin-2-yl)propanoic acid], the 50% effective concentration (EC50) at Gal4-RORγ-LBD (setting [1]) was 500 to 5000 nM; at RORγ-LBD (RORγ-LBD TR-FRET), below 500 nM.
The like results for `COC(=O)CC[C@H]1CN(S(=O)(=O)c2cc(C(F)(F)F)cnc2OCCCO)c2cc(/C=C/c3c(F)cccc3Cl)ccc2O1` [Example 89FD, methyl (S,E)-3-(6-(2-chloro-6-fluorostyryl)-4-((2-(3-hydroxypropoxy)-5-(trifluoromethyl)pyridin-3-yl)sulfonyl)-3,4-dihydro-2H-benzo[b][1,4]-oxazin-2-yl)propanoate] were, in that order, 500 to 5000 nM and below 500 nM.
The like results for `CCOc1nn(CC)cc1S(=O)(=O)N1C[C@H](CCC(=O)O)Oc2ccc(/C=C/c3c(Cl)cccc3C(C)(F)F)cc21` [Example 89FE, (S,E)-3-(6-(2-chloro-6-(1,1-difluoroethyl)styryl)-4-((3-ethoxy-1-ethyl-1H-pyrazol-4-yl)sulfonyl)-3,4-dihydro-2H-benzo[b][1,4]oxazin-2-yl)propanoic acid] were, in that order, below 500 nM and below 500 nM.
For `CCOc1nn(CC)cc1S(=O)(=O)N1C[C@H](CCC(=O)OC)Oc2ccc(/C=C/c3c(Cl)cccc3C(C)(F)F)cc21` [Example 89FF, methyl (S,E)-3-(6-(2-chloro-6-(1,1-difluoroethyl)styryl)-4-((3-ethoxy-1-ethyl-1H-pyrazol-4-yl)sulfonyl)-3,4-dihydro-2H-benzo[b][1,4]oxazin-2-yl)propanoate], in that order: 500 to 5000 nM and below 500 nM.
`CCOc1ncc(C(F)(F)F)cc1S(=O)(=O)N1C[C@H](CCC(=O)O)Oc2ccc(/C=C/c3c(Cl)cccc3C(C)(F)F)cc21` [Example 89FG, (S,E)-3-(6-(2-chloro-6-(1,1-difluoroethyl)styryl)-4-((2-ethoxy-5-(trifluoromethyl)-pyridin-3-yl)sulfonyl)-3,4-dihydro-2H-benzo[b][1,4]-oxazin-2-yl)propanoic acid]: the EC50 at Gal4-RORγ-LBD (setting [1]) and on RORγ-LBD (RORγ-LBD TR-FRET) was below 500 nM each time.
Consider `CCOc1ncc(C(F)(F)F)cc1S(=O)(=O)N1C[C@H](CCC(=O)OC)Oc2ccc(/C=C/c3c(Cl)cccc3C(C)(F)F)cc21` [Example 89FH, methyl (S,E)-3-(6-(2-chloro-6-(1,1-difluoroethyl)styryl)-4-((2-ethoxy-5-(trifluoromethyl)-pyridin-3-yl)sulfonyl)-3,4-dihydro-2H-benzo[b][1,4]-oxazin-2-yl)propanoate], for which the EC50 at Gal4-RORγ-LBD (setting [1]) and on RORγ-LBD (RORγ-LBD TR-FRET) was below 500 nM throughout.
Take `CC(F)(F)c1cccc(Cl)c1/C=C/c1ccc2c(c1)N(S(=O)(=O)c1cc(C(F)(F)F)cnc1OCCO)C[C@H](CCC(=O)O)O2` [Example 89FI, (S,E)-3-(6-(2-chloro-6-(1,1-difluoroethyl)styryl)-4-((2-(2-hydroxyethoxy)-5-(trifluoromethyl)pyridin-3-yl)sulfonyl)-3,4-dihydro-2H-benzo[b][1,4]-oxazin-2-yl)propanoic acid]: the half-maximal effective concentration (EC50) at Gal4-RORγ-LBD (setting [1]) and at RORγ-LBD (RORγ-LBD TR-FRET) was below 500 nM each time.
As to `O=C(O)CC[C@H]1CN(S(=O)(=O)c2cc(C(F)(F)F)cnc2OCC(O)CO)c2cc(/C=C/c3c(F)cccc3Cl)ccc2O1` (stereo partly drawn) [Example 89FJ, 3-((2S)-6-((E)-2-chloro-6-fluorostyryl)-4-((2-(2,3-dihydroxypropoxy)-5-(trifluoromethyl)pyridin-3-yl)sulfonyl)-3,4-dihydro-2H-benzo[b][1,4]oxazin-2-yl)propanoic acid], the EC50 on Gal4-RORγ-LBD (setting [1]) is 500 to 5000 nM; on RORγ-LBD (RORγ-LBD TR-FRET), below 500 nM.
The like results for `CC(C)Oc1ncc(C(F)(F)F)cc1S(=O)(=O)N1C[C@H](CCC(=O)O)Oc2ccc(/C=C/c3c(F)cccc3Cl)cc21` [Example 89FK, (S,E)-3-(6-(2-chloro-6-fluorostyryl)-4-((2-isopropoxy-5-(trifluoromethyl)pyridin-3-yl)sulfonyl)-3,4-dihydro-2H-benzo[b][1,4]oxazin-2-yl)propanoic acid] were, in that order, above 10000 nM and below 500 nM.
The like results for `C[C@H](O)COc1ncc(C(F)(F)F)cc1S(=O)(=O)N1C[C@H](CCC(=O)O)Oc2ccc(/C=C/c3c(F)cccc3Cl)cc21` [Example 89FM, 3-((S)-6-((E)-2-chloro-6-fluorostyryl)-4-((2-((S)-2-hydroxypropoxy)-5-(trifluoromethyl)pyridin-3-yl)sulfonyl)-3,4-dihydro-2H-benzo[b][1,4]oxazin-2-yl)propanoic acid] were, in that order, 500 to 5000 nM and below 500 nM.
The like results for `COC(=O)CC[C@H]1CN(S(=O)(=O)c2cc(C(F)(F)F)cnc2OC[C@H](C)O)c2cc(/C=C/c3c(F)cccc3Cl)ccc2O1` [Example 89FN, methyl 3-((S)-6-((E)-2-chloro-6-fluorostyryl)-4-((2-((S)-2-hydroxypropoxy)-5-(trifluoromethyl)pyridin-3-yl)sulfonyl)-3,4-dihydro-2H-benzo[b][1,4]oxazin-2-yl)propanoate] were, in that order, 500 to 5000 nM and below 500 nM.
For `O=C(O)CC[C@H]1CN(S(=O)(=O)c2cc(C3CC3)cnc2OCCO)c2cc(/C=C/c3c(F)cccc3Cl)ccc2O1` [Example 89FO, (S,E)-3-(6-(2-chloro-6-fluorostyryl)-4-((5-cyclopropyl-2-(2-hydroxyethoxy)pyridin-3-yl)sulfonyl)-3,4-dihydro-2H-benzo[b][1,4]oxazin-2-yl)propanoic acid], the EC50 on Gal4-RORγ-LBD (setting [2]) and at RORγ-LBD (setting [3]) was below 500 nM in each case.
Take `COC(=O)CC[C@H]1CN(S(=O)(=O)c2cc(C3CC3)cnc2OCCO)c2cc(/C=C/c3c(F)cccc3Cl)ccc2O1` [Example 89FP, methyl (S,E)-3-(6-(2-chloro-6-fluorostyryl)-4-((5-cyclopropyl-2-(2-hydroxyethoxy)pyridin-3-yl)sulfonyl)-3,4-dihydro-2H-benzo[b][1,4]oxazin-2-yl)propanoate]: the EC50 at Gal4-RORγ-LBD (setting [2]) and at RORγ-LBD (setting [3]) was below 500 nM throughout.
For `O=C(O)CC[C@H]1CN(S(=O)(=O)c2cccc(OC(F)F)c2)c2cc(/C=C/c3ncccn3)ccc2O1` [Example 89G, (S,E)-3-(4-((3-(difluoromethoxy)-phenyl)sulfonyl)-6-(2-(pyrimidin-2-yl)vinyl)-3,4-dihydro-2H-benzo[b][1,4]oxazin-2-yl)propanoic acid], the figures for the EC50 at Gal4-RORγ-LBD (setting [1]) and at RORγ-LBD (RORγ-LBD TR-FRET) were above 10000 nM and 500 to 5000 nM, respectively.
For `COC(=O)CC[C@H]1CN(S(=O)(=O)c2cccc(OC(F)F)c2)c2cc(/C=C/c3ncccn3)ccc2O1` [Example 89H, (S,E)-methyl 3-(4-((3-(difluoromethoxy)-phenyl)sulfonyl)-6-(2-(pyrimidin-2-yl)vinyl)-3,4-dihydro-2H-benzo[b][1,4]oxazin-2-yl)propanoate], in that order: above 10000 nM and below 500 nM.
